Data from PubChem BioAssay (NCI).
“And” between values parts separate entries of the source, which are not always exact repeats. Equal entries are not always repeated.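 Cells were grown in 96-well plates and exposed to each compound for 48 hours at five concentrations; endpoints were interpolated linearly between bracketing concentrations, or set to the highest concentration if not reached. Here, GI50 denotes the concentration required for 50% inhibition of growth. Definition used: TGI = concentration required for complete inhibition of growth.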

Key:
Experiment in all cases: NCI tumour cell line growth inhibition, 48 h
CAKI-1 renal = tested on: CAKI-1 renal
COLO 205 colon = tested on: COLO 205 colon
HOP-92 NSCLC = tested on: HOP-92 NSCLC
K-562 leukemia = tested on: K-562 leukemia
NCI-H23 lung = tested on: NCI-H23 lung
SK-OV-3 ovarian = tested on: SK-OV-3 ovarian
SNB-19 CNS = tested on: SNB-19 CNS
SR leukemia = tested on: SR leukemia
SW-620 colon = tested on: SW-620 colon
T-47D breast = tested on: T-47D breast
U251 CNS = tested on: U251 CNS

SMILES | TGI (CAKI-1 renal) [µM] | TGI (COLO 205 colon) [µM] | TGI (HOP-92 NSCLC) [µM] | TGI (K-562 leukemia) [µM] | TGI (NCI-H23 lung) [µM] | TGI (SK-OV-3 ovarian) | TGI (SNB-19 CNS) | TGI (SR leukemia) [µM] | TGI (SW-620 colon) [µM] | TGI (T-47D breast) [µM] | TGI (U251 CNS) | GI50 (HOP-92 NSCLC) [µM] | GI50 (NCI-H23 lung) [µM] | GI50 (SK-OV-3 ovarian) | GI50 (SNB-19 CNS) | GI50 (SR leukemia) [µM] | GI50 (T-47D breast)
C=C1C[C@H](O)[C@H](Br)C(C)(C)C12CCC(C)(Cl)C(Br)C2 (some centres not stated) | 24.5 | 2.29 | 8.76 | 56.2 | 7.98 | 12.7 µM | 10.4 µM | 19.7 | 20.4 | 13.5 | 8.91 µM |  |  |  |  |  | 
COc1ccc2nc3cccc([N+](=O)[O-])c3c(NCCCO)c2c1 | 0.0248 |  | 0.0565 |  | 0.05 | 0.184 µM and 0.563 µM | 0.404 µM and 0.29 µM |  | 0.0323 |  | 0.108 µM and 0.16 µM | 0.0154 | 0.0117 | 0.0375 µM and 0.0452 µM | 0.0159 µM and 0.0252 µM | 0.0288 | 0.0292 µM and 0.136 µM
OC1CSc2nc3ccccc3n2C1 (configuration not stated) | > 100 | > 100 | > 100 | > 100 | > 100 | > 100 µM | > 100 µM | > 100 | > 100 | > 100 | > 100 µM |  |  |  |  |  | 
CCOC1CC(C)N(C(=O)c2ccccc2)O1 (configuration not stated) |  |  | > 100 | > 100 | > 100 | > 100 µM | > 100 µM | > 100 | > 100 | > 100 | > 100 µM |  |  |  |  |  | 
c1ccc(CSC2(SCc3ccccc3)CCCCC2)cc1 | > 10 | > 10 | > 10 | > 10 | > 10 | > 10 µM | > 10 µM | > 10 | > 10 | > 10 | > 10 µM |  |  |  |  |  | 
CCOc1cc2c(c(OCC)c1O)CC[C@@H]1[C@@H]2CC[C@]2(C)[C@@H](O)CC[C@@H]12 | 32.1 | 55.3 | 67.6 | 23.7 | 41.4 | 57.5 µM | > 100 µM | 28 | 41.7 | 54.3 |  |  |  |  |  |  | 
CC(=O)N(C(C)=O)c1cc2c3c(c1)CCCN3CCC2 | > 10 | > 10 | > 10 | > 10 | > 10 | > 10 µM | > 10 µM | > 10 | > 10 | > 10 | > 10 µM |  |  |  |  |  | 
CCOC(=O)c1nc2ccc(C(F)(F)F)cc2nc1Oc1ccc(C(=O)OC)cc1 | > 100 | > 100 | > 100 | > 100 | > 100 | > 100 µM | > 100 µM | > 100 | > 100 | > 100 | > 100 µM |  |  |  |  |  | 
Cc1ccc(Nc2nc3c(=O)n(C)c(=O)n(C)c3nc2Nc2ccc(C)cc2)cc1 | 30.4 | 16 | 23.5 | > 100 | 31.2 | > 100 µM | > 100 µM | > 100 | 4.04 | 30.3 | 29.9 µM |  |  |  |  |  | 
CCOC(=O)c1c(NC(=S)Nc2ccccc2)sc2c1CCOC2 | > 100 | > 100 | 89.4 | > 100 | > 100 | > 100 µM | > 100 µM | > 100 | > 100 | > 100 | > 100 µM |  |  |  |  |  | 
O=c1oc2c(Cl)cc(Cl)cc2cc1C1=CSC2=NCCN12 | > 100 | > 100 | > 100 | > 100 | > 100 | > 100 µM | > 100 µM | > 100 | > 100 | > 100 | > 100 µM |  |  |  |  |  | 
Cc1nc2sccn2c1/C=C1/C(=O)Nc2cccc(Cl)c21 | > 100 | > 100 | > 100 | > 100 | > 100 | > 100 µM | > 100 µM | > 100 | > 100 | > 100 | > 100 µM |  |  |  |  |  | 
CC(=O)OC(C)(C)CCC(=O)[C@](C)(O)[C@H]1[C@H](O)C[C@@]2(C)[C@@H]3CCc4c(cc(OC5OC(CO)C(O)C(O)C5O)c(O)c4C)C3(C)C(=O)C[C@]12C (some centres not stated) | > 100 | > 100 | > 100 | > 100 | > 100 | > 100 µM | > 100 µM | > 100 | > 100 | > 100 | > 100 µM |  |  |  |  |  | 
O=C1CC(NCc2ccccc2)c2c(Cl)sc(Cl)c21 (configuration not stated) | 53 | 56 | 64.8 | > 100 | 39.5 | > 100 µM | > 100 µM | > 100 | > 87.4 | > 100 | 43.4 µM |  |  |  |  |  | 
O=C1CC(=O)NC(=NNS(=O)(=O)c2ccc(Cl)cc2)N1 | > 100 | > 100 | > 100 | > 100 | > 100 | > 100 µM | > 100 µM | > 100 | > 100 | > 100 | > 100 µM |  |  |  |  |  | 
CCO/C=N/C1=C(C#N)SC2=N/C(=C\c3ccccc3)C(=O)N21 | > 100 | > 100 | > 100 | > 80.4 | > 100 | > 100 µM | > 100 µM | > 93.8 | > 100 | > 100 | > 100 µM |  |  |  |  |  | 
O=C(c1cc2c(c3ccccc13)NC1(CCCCC1)N=C2C(F)(F)F)C(F)(F)F | 13.1 | 18.1 | 13.4 | 16.8 | 12.5 | 18.7 µM | 18.7 µM | 13.2 | 18.7 | 13.5 | 13.9 µM |  |  |  |  |  | 
CCOC(=O)/C=C(/C)Nc1nc2c(c(C(=O)OC)c1C#N)CCCC2 | > 100 | > 100 | > 100 | > 100 | > 100 | > 100 µM | > 100 µM | > 100 | > 100 | > 100 | > 100 µM |  |  |  |  |  | 
COc1cccc(/C=C2\S/C(=N/Nc3nc(-c4ccc([N+](=O)[O-])cc4)cs3)NC2=O)c1O | 71.1 | 33 | 33.6 |  | 33.5 | 79.8 µM | 52.9 µM | 74.9 | 46.1 | 27.5 | 7.66 µM |  |  |  |  |  | 
